Data: US8729103B2, “Silent desensitizers of neuronal nAChR and methods of use thereof” (priority 2008, dated 2014)

Experiments:
[1] = in vivo; cited from earlier work
[2] = stability of the isolated HCl salt on exposure to air; type: physicochemical; conditions: white solid, larger scale
Text: A gram-scale synthesis of sazetidine A is outlined in FIG. 1a. The Boc-protected azidityl methyl alcohol 2 and 3-bromo-5-hydroxy pyridine (3) are both commercially available. Treatment with PPh3 and DEAD according to the Mitsunobu protocol formed ether derivative 4 in 70% yield. Palladium-mediated coupling of the bromo-substituted pyridine 4 with 5-hexyn-1-ol under modified Sonogashira conditions furnished Boc-protected sazetidine A in 73% yield. Deprotection of the Boc-group with HCl was expected to give sazetidine A in salt form as published in the literature.

α4β2 nAChRs [3] = target: T1, α4β2 nAChRs (Homo sapiens, UniProt P17787+P43681); conditions: added alone; cited from earlier work
T1 construct: expressed in transfected cells; host or cells: SH-EP1 (SH-EP1-pcDNA-hα4β2)

α4β2 nAChRs [4] = target: T2, α4β2 nAChRs (Rattus norvegicus, UniProt P09483+P12390); assay: [3H]epibatidine competition binding, α4β2 nAChR; conditions: triazole in place of alkyne
T2 construct: expressed in transfected cells; host or cells: HEK293 (KXα4β2)
Experimental: The cell lines KXα3β4R2, expressing rat α3β4 nAChRs, and KXα4β2, expressing rat α4β2 nAChRs, were established previously by stably transfecting human embryonic kidney 293 cells with combinations of rat nAChR subunit genes. These cell lines are maintained in minimum essential medium supplemented with 10% fetal bovine serum, 100 units/mL penicillin G, […] streptomycin, and 0.7 mg/mL G418 (Geneticin) at 37° C. with 5% CO2 in a humidified incubator. The cell line SH-EP1-pcDNA-hα4β2, expressing human α4β2 nAChRs, was described previously and are available. […]
The Ki values of compounds for binding to α3β4, α4β2 and other nAChR sub-types will be measured by competition experiments with [3H]epibatidine or other labeled ligands. […]
In brief, cultured cells at above about 80% confluence will be removed from their flasks (80 cm^2) with a disposable cell scraper and will be placed in 10 mL of 50 mM Tris-HCl buffer, pH 7.4, 4° C. […] Nonspecific binding will be assessed in parallel incubations in the presence of 300 μM nicotine. […] The filter-retained radioactivity will be measured by liquid scintillation counting. […] Data from saturation and competition binding assays will be analyzed using Prism 4 (GraphPad Software, San Diego, Calif.).

## Clc1ccc(C2CC3CCC2N3)cn1 (stereo not shown) [Epibatidine]
[1]
  analgesic potency relative to morphine: ~200 times

## OCCCCC#Cc1cncc(OCC2CCN2)c1 (stereo not shown) [sazetidine A]
[2]
  stability of the HCl salt on exposure to air: immediately resulted in decomposition
α4β2 nAChRs [3]
  agonist activity at α4β2 nAChRs: only low agonist activity

## OCCCCc1cn(-c2cncc(OCC3CCN3)c2)nn1 (stereo not shown) [triazetidine O]
α4β2 nAChRs [4]
  decrease in Ki relative to sazetidine A: approximately 10 fold
